From ChEMBL document CHEMBL1146816, “Design, synthesis, and evaluation of estradiol-linked genotoxicants as anti-cancer agents” (Bioorg Med Chem Lett, 2004)

Key:
[1] = LogD at pH 7.4; format: physicochemical; details: buffer
[2] = Partition coefficient (logP); format: physicochemical; details: octanol/water
[3] = system: MCF7; test: Dose required for 30% clonal survival of ER positive MCF-7 breast cancer cells after 2 hr; format: functional, Homo sapiens
[4] = system: MDA-MB-231; test: Dose required for 30% clonal survival of ER negative MDA-MB-231 breast cancer cells after 2 hr; format: functional, Homo sapiens
[5] = molecular target: Estrogen receptor (Homo sapiens) (UniProt Q92731+P03372); test: Percent of covalently modified 16-mer (DNA adduct) in a slowly migrating complex with ER ligand binding domain (ER-LBD) in EMSA electrophoretic mobility shift assay; format: functional
[6] = Percent of 16-mer cleaved by piperidine after treatment with test compound for 24 hr at 37 degrees C; format: functional

| Compound | logD [1] | logP [2] | ED30 [3] | ED30 [4] | Oligo shifted [5] | Oligo modified [6] |
| --- | --- | --- | --- | --- | --- | --- |
| C[C@]12CC[C@@H]3c4ccc(O)cc4C[C@@H](CCCCCC/N=C(/N)NCCCc4ccc(N(CCCl)CCCl)cc4)[C@H]3[C@@H]1CC[C@@H]2O | 2.52 | 5.67 | >20 µM | >20 µM | 38% | 58% |
| C[C@]12CC[C@@H]3c4ccc(O)cc4C[C@@H](CCCCCCNC(=O)CCCc4ccc(N(CCCl)CCCl)cc4)[C@H]3[C@@H]1CC[C@@H]2O | 5.07 | 5.07 | >20 µM | 20 µM | – | 14% |
| C[C@]12CC[C@@H]3c4ccc(O)cc4C[C@@H](CCCCCCNCCOC(=O)NCCCc4ccc(N(CCCl)CCCl)cc4)[C@H]3[C@@H]1CC[C@@H]2O | 2.22 | 5.32 | 5.1 µM | 9.6 µM | 93% | 45% |
| C[C@]12CC[C@@H]3c4ccc(O)cc4C[C@@H](CCCCCCNC(=O)CCCNC(=O)CCCc4ccc(N(CCCl)CCCl)cc4)[C@H]3[C@@H]1CC[C@@H]2O | 4.85 | 4.85 | >20 µM | >20 µM | – | 39% |
| C[C@]12CC[C@@H]3c4ccc(O)cc4C[C@@H](CCCCCCOC(=O)NCCCc4ccc(N(CCCl)CCCl)cc4)[C@H]3[C@@H]1CC[C@@H]2O | 5.61 | 5.61 | >20 µM | >20 µM | – | 3% |
| C[C@]12CC[C@@H]3c4ccc(O)cc4C[C@@H](CCCCCCNCCCCNCCCCc4ccc(N(CCCl)CCCl)cc4)[C@H]3[C@@H]1CC[C@@H]2O | 2.22 | 5.32 | 5.1 µM | 7.9 µM | 38% | 79% |
| C[C@]12CC[C@@H]3c4ccc(O)cc4C[C@@H](CCCCCCNCCCCc4ccc(N(CCCl)CCCl)cc4)[C@H]3[C@@H]1CC[C@@H]2O | 2.87 | 5.96 | 5.1 µM | 8.6 µM | 67% | 44% |
| C[C@]12CC[C@@H]3c4ccc(O)cc4C[C@@H](CCCCCCNCC/N=C(/N)NCCCc4ccc(N(CCCl)CCCl)cc4)[C@H]3[C@@H]1CC[C@@H]2O | 3.12 | 6.27 | >20 µM | >20 µM | 93% | 29% |
